Several values for one entry are separate records, joined by “and”; a condition that tells them apart may be missing. Equal values may be shown once.
Experiments:
[1] = target: FLT1/VEGFR1 (Homo sapiens, UniProt P17948); assay: biochemical; settings: read-out: % enzyme activity, 1 μM; Run 1, Run 2
[2] = target: T1, DYRK3 (Homo sapiens, UniProt O43781); assay: biochemical; settings: read-out: % enzyme activity, 1 μM; Run 1, Run 2
T1 sequence (O43781 1-588): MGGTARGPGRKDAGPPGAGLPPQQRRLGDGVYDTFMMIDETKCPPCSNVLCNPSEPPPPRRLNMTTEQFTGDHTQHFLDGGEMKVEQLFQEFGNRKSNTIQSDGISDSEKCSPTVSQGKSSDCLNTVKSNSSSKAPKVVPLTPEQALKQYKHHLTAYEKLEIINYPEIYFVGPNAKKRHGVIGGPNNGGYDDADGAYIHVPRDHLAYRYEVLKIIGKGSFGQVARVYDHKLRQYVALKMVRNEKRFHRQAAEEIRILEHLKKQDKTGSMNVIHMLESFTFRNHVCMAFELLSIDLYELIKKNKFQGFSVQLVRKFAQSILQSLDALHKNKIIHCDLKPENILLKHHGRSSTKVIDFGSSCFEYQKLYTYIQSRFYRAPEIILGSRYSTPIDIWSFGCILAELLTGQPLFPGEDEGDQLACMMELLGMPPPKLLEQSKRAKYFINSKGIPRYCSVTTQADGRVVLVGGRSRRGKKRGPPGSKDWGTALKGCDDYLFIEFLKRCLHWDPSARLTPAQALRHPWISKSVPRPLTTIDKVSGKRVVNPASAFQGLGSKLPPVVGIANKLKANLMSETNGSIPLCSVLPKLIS

[3] = target: CK1g2 (Homo sapiens, UniProt P78368); assay: biochemical; settings: read-out: % enzyme activity, 1 μM; Run 1, Run 2
Sequence of CK1g2 (P78368 whole entry): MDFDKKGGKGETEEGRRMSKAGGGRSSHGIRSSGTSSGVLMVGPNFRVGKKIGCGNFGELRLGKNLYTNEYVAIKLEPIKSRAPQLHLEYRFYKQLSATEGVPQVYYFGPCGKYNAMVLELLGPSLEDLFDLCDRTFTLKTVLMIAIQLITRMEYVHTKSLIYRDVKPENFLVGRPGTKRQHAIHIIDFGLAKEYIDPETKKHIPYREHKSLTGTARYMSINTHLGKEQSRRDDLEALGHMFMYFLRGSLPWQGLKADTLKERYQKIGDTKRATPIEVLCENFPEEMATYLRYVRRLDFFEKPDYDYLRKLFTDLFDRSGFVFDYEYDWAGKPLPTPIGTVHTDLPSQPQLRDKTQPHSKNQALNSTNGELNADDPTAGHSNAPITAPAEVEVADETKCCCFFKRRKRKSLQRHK

[4] = system: HGK/MAP4K4
[5] = target: T2, DYRK4 (Homo sapiens, UniProt Q9NR20); assay: biochemical; settings: read-out: % enzyme activity, 1 μM; Run 1, Run 2
T2 sequence (Q9NR20 1-520): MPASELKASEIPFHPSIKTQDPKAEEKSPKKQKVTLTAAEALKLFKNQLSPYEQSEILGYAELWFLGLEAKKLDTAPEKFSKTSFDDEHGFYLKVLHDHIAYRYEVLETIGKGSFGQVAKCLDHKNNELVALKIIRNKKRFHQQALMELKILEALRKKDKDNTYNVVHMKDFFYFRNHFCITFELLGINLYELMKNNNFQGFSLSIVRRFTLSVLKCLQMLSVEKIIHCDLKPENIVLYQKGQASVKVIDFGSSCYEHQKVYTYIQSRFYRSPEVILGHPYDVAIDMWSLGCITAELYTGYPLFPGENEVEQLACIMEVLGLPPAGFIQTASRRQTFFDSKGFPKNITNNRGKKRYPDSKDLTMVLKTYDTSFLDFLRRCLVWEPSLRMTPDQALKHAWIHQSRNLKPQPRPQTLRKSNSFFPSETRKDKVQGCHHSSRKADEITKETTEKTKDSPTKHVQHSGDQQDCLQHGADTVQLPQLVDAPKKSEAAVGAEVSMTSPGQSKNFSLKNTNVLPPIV

[6] = target: CK1epsilon (Homo sapiens, UniProt P49674); assay: biochemical; settings: read-out: % enzyme activity, 1 μM; Run 1, Run 2
Sequence of CK1epsilon (P49674 whole entry): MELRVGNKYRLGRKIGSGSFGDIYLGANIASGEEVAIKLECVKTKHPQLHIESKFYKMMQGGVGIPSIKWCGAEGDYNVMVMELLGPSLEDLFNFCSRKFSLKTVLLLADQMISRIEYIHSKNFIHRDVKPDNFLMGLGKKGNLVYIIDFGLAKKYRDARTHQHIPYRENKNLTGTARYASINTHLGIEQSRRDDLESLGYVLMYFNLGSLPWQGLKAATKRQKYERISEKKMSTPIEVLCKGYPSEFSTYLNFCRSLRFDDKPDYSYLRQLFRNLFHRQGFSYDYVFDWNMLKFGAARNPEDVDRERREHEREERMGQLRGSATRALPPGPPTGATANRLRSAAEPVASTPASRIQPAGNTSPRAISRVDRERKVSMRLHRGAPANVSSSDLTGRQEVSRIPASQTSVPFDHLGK

[7] = target: FGFR3 (Homo sapiens, UniProt P22607); assay: biochemical; settings: read-out: % enzyme activity, 1 μM; Run 1, Run 2
Sequence of FGFR3 (P22607 23-806): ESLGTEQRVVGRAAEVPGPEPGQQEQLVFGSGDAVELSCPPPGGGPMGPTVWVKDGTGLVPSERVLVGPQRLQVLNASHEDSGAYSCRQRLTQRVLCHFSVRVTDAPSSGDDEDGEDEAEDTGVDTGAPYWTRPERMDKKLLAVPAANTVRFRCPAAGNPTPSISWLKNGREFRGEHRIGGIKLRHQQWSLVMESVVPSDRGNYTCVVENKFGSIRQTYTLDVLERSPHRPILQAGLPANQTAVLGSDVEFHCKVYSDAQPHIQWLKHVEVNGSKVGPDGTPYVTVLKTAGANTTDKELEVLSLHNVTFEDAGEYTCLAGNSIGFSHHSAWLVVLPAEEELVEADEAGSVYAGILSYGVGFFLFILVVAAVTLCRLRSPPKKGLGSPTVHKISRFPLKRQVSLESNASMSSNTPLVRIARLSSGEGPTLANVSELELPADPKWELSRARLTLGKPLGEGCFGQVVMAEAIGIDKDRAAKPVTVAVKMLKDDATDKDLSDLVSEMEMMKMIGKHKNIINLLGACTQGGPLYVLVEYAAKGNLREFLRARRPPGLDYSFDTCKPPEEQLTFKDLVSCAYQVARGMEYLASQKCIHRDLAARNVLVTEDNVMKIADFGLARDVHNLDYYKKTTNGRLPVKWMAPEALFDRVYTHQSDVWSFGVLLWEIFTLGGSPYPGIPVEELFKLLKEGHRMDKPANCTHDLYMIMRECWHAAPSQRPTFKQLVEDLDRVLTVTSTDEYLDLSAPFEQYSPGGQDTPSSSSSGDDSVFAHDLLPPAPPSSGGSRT

[8] = target: STK25/YSK1 (Homo sapiens, UniProt O00506); settings: 1 μM; Run 1, Run 2
Sequence of STK25/YSK1 (O00506 whole entry): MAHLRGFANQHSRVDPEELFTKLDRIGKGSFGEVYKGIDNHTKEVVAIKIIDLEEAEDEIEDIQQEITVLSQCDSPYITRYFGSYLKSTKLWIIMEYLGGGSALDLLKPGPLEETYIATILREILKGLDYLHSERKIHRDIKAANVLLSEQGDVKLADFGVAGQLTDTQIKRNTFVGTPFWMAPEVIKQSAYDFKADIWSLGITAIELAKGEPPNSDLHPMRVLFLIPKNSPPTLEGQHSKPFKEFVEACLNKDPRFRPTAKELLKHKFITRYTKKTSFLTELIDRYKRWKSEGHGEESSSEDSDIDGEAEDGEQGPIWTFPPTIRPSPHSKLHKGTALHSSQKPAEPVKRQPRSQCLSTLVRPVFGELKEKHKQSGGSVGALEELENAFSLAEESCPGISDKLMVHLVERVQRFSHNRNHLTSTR

[9] = target: CDK3/cyclin E (Homo sapiens, UniProt Q00526); assay: biochemical; settings: read-out: % enzyme activity, 1 μM; Run 1, Run 2
Sequence of CDK3/cyclin E (Q00526 whole entry): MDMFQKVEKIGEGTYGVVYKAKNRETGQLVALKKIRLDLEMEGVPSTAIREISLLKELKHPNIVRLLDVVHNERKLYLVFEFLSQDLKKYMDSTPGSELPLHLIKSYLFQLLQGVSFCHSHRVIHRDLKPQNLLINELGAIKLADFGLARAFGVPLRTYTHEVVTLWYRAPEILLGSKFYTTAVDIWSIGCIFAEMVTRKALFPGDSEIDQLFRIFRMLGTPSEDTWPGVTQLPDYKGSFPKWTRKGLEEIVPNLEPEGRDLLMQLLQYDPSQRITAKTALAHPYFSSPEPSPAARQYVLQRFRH
Sequence of CDK3/cyclin E (P24864 whole entry, further chain): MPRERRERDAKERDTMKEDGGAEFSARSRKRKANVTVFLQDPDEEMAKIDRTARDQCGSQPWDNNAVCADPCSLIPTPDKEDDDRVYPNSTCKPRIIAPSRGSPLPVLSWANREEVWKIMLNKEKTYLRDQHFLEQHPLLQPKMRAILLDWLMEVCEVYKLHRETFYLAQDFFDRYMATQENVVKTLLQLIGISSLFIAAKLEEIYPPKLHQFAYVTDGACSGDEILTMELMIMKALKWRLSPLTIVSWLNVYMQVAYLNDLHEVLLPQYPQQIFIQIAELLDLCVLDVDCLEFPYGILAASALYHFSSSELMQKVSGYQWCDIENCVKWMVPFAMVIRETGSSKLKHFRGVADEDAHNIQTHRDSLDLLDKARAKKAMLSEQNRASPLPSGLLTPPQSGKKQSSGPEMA

[10] = target: CDK2/cyclin O (Homo sapiens, UniProt P24941); settings: 1 μM; Run 1, Run 2
[11] = target: PKN1/PRK1 (Homo sapiens, UniProt Q16512); assay: biochemical; settings: read-out: % enzyme activity, 1 μM; Run 1, Run 2
[12] = target: CDK5/P25 (Homo sapiens, UniProt Q00535); settings: 1 μM; Run 1, Run 2
[13] = target: CLK2 (Homo sapiens, UniProt P49760); assay: biochemical; settings: read-out: % enzyme activity, 1 μM; Run 1, Run 2
Sequence of CLK2 (P49760 whole entry): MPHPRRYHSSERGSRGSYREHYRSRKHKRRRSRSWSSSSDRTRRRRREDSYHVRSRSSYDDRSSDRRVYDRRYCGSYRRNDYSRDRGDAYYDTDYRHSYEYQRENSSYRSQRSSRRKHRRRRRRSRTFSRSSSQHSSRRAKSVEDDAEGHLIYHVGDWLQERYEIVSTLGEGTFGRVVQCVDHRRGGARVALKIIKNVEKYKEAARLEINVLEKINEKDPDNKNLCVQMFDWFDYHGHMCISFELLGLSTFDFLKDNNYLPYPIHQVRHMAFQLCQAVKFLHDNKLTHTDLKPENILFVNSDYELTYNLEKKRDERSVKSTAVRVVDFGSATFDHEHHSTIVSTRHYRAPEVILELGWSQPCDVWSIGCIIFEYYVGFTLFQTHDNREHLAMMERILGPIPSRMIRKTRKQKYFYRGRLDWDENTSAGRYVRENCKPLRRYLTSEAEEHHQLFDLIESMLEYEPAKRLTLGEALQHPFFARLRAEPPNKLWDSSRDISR

[14] = target: RET (Homo sapiens, UniProt P07949); assay: biochemical; settings: read-out: % enzyme activity, 1 μM; Run 1, Run 2
Sequence of RET (P07949 29-1114): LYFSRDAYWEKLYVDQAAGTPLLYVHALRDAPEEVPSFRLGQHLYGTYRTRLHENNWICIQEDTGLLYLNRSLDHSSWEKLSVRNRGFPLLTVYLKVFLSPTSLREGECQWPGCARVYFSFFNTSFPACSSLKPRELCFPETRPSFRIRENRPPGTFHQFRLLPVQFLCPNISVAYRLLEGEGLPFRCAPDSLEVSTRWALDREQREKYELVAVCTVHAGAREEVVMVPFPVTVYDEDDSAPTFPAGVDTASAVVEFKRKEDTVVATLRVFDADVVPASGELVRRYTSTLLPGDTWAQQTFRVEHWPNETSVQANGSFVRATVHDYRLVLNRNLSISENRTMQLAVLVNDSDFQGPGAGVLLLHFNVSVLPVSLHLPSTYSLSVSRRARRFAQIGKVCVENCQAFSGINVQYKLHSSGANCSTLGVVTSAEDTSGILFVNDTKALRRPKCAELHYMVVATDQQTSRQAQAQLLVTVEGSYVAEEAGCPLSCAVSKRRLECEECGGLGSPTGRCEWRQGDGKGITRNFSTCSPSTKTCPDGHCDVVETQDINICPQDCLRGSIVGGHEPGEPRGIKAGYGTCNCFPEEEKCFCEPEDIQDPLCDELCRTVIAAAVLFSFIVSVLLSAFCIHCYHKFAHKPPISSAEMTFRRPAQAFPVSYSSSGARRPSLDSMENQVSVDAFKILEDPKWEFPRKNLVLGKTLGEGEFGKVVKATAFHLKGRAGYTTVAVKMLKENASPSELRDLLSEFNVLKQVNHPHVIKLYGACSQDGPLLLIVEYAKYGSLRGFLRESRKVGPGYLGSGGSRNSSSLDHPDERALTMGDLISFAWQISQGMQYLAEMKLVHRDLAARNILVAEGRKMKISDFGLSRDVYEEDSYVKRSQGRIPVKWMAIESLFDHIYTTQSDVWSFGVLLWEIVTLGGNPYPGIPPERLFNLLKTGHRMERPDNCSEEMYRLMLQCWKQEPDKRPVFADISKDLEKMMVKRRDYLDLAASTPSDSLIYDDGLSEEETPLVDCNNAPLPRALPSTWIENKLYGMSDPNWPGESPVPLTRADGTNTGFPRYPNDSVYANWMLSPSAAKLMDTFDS

[15] = target: STK38/NDR1 (Homo sapiens, UniProt Q15208); assay: biochemical; settings: read-out: % enzyme activity, 1 μM; Run 1, Run 2
Sequence of STK38/NDR1 (Q15208 whole entry): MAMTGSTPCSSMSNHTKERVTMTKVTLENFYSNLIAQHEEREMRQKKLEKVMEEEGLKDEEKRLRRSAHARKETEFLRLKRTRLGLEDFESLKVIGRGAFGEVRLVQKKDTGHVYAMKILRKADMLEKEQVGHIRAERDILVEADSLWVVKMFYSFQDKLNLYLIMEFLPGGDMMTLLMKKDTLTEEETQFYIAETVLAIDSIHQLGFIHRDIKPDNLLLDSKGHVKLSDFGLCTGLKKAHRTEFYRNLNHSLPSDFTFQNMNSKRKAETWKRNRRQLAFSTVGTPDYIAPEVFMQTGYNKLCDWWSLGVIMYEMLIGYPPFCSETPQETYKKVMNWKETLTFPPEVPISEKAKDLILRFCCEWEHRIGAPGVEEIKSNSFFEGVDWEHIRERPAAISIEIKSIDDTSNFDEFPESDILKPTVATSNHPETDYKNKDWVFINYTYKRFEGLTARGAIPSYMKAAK

[16] = target: T3, P38g (Homo sapiens, UniProt P53778); settings: 1 μM; Run 1, Run 2
T3 sequence (P53778 1-367): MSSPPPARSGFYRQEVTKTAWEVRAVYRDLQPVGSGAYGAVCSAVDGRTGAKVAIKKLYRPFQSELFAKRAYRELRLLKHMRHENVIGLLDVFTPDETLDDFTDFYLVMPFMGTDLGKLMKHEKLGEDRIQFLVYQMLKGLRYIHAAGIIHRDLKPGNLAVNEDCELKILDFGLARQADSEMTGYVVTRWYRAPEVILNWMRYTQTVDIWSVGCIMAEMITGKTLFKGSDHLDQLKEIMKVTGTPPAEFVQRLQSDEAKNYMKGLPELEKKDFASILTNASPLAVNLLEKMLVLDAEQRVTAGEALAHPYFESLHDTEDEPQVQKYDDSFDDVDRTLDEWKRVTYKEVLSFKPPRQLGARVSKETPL

Row | SMILES | remaining activity at 1 µM [1] [%] | remaining activity at 1 µM [2] [%] | remaining activity at 1 µM [3] [%] | % enzyme activity at 1 μM [4] | remaining activity at 1 µM [5] [%] | remaining activity at 1 µM [6] [%] | remaining activity at 1 µM [7] [%] | % enzyme activity [8] [%] | remaining activity at 1 µM [9] [%] | % enzyme activity [10] [%] | remaining activity at 1 µM [11] [%] | % enzyme activity [12] [%] | remaining activity at 1 µM [13] [%] | remaining activity at 1 µM [14] [%] | remaining activity at 1 µM [15] [%] | % enzyme activity [16] [%]
1 | COc1cc(-c2cncc(-c3ccc(N4CCN(C)CC4)cc3)c2C)cc(F)c1C(N)=O [Compound 26a, 2-Fluoro-6-methoxy-4-(4-methyl-5-(4-(4-methylpiperazin-1-yl)phenyl)pyridin-3-yl)benzamide] | 107 | 90.4 | 78 | 22% and 21% | 103 | 93.8 | 101 | 94.98 | 82.7 | 93.78 | 98.5 | 91.77 | 91.7 | 94.4 | 91.9 | 107.36
2 | COc1cc(-c2cncc(-c3ccc(N4C[C@@H](C)N(C)[C@@H](C)C4)cc3)c2C)cc(F)c1C(N)=O [Compound 26c, 2-Fluoro-6-methoxy-4-(4-methyl-5-(4-((3R,5S)-3,4,5-trimethylpiperazin-1-yl)phenyl)pyridin-3-yl)benzamide] | 108 | 96 | 87 | 30.6% and 28.4% | 101 | 94.7 | 103 | 94.06 | 78.7 | 88.53 | 98.7 | 94.09 | 90.3 | 96 | 96.7 | 105.83

From publication PMC8213057, “Targeting ALK2: An Open Science Approach to Developing Therapeutics for the Treatment of Diffuse Intrinsic Pontine Glioma” (Journal of Medicinal Chemistry, 2020)
